Laboratory results taken from patent US20260184714A1, “SMALL MOLECULE MODULATORS OF PAR2 AND USES THEREOF” (PARMEDICS, INC., priority 2022, published 2026).
Like-named read-outs stand apart in the source and are kept apart here.

Tests used:
[1] = system: airway hyperresponsiveness induced by Alternaria alternata; experiment: Alternaria alternata-induced asthma model, total airway resistance to methacholine (FLEXIVENT); assay type: in vivo, mouse; conditions: mice, Alternaria alternata intranasally three times over 8 days, with Compound I-1
Description: Alternaria alternata is a fungal allergen that activates PAR2 in the airways to promote inflammation and bronchoconstriction. Compound I-1 was evaluated in vivo to assess whether it can be used to treat airway hyperresponsiveness induced by Alternaria alternata. FIG. 3 summarizes the results for this in vivo study.
Alternaria alternata or saline (A data points in FIG. 3) were administered intranasally in a mouse asthma model three times over an 8 day period, in the presence (Q data points in FIG. 3) or absence (o data points in FIG. 3) of Compound I-1. Total airway resistance in response to increasing amounts of methacholine was monitored using the FLEXIVENT® (Scireq, Quebec, Canada) system.

[2] = target: T1, protease-activated receptor-2 (PAR2) (Homo sapiens, UniProt P55085); experiment: xCELLigence real time cellular analysis (RTCA) of PAR2 antagonism; assay type: cell-based; conditions: 16HBE14o- cells; 5 min pre-incubation with 300 nM-10 μM compound, then 300 nM 2AT or 30 nM trypsin; high concentrations
T1 construct: a human bronchial epithelial cell line that naturally expressed PAR2; endogenous in cells; host or cells: 16HBE14o- human bronchial epithelial cells
T1 sequence (P55085 26-397): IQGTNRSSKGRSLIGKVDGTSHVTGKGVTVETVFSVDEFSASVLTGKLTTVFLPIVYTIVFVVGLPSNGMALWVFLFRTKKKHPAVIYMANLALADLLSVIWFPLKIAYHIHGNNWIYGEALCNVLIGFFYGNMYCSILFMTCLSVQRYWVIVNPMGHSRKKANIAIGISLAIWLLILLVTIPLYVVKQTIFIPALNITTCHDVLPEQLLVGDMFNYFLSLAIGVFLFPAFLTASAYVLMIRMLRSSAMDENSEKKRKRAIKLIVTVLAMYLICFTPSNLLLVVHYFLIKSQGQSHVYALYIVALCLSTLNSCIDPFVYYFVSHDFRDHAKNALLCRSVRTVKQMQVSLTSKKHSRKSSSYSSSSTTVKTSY
Description: (§1) Compound I-1 (labelled as “C I-1” in FIGS. 1A-1D) was evaluated for its ability to antagonize protease-activated receptor-2 (PAR2) in several cellular assays using a human bronchial epithelial cell line that naturally expressed PAR2 (16HBE14o− cells; see FIG. 1A-1D).
In the first assay to detect an in vitro physiological response, the xCELLigence real time cellular analysis (RTCA) was used.
Following overnight growth, varying concentrations of Compound I-1 was added to individual wells (in quadruplicate) in final concentrations of 300 nM, 1 μM, 3 μM and 10 μM. […] The upward deflection and recovery of the Cell Index shown in response to control 300 nM 2AT (FIG. 1A) or 30 nM (FIG. 1B) represents a typical EC50 response.

[3] = system: stress-induced migraine-like pain; experiment: Stress-induced migraine model, facial withdrawal response after SNP; assay type: in vivo, mouse; conditions: mice, restraint stress for 3 days, 14-day recovery, then SNP
Description: Migraine headaches are characterized by sensitivity of pain-sensing neurons in the dura mater to innocuous stimuli, e.g., the nitric oxide donor, sodium nitroprusside (SNP). Compound I-1 was evaluated in vivo using a mouse migraine model to assess whether it can be used to treat stress-induced migraine-like pain. FIG. 2 summarizes the results for this in vivo study.
Mice were subjected to restraint stress for 3 days (□ and ⋄ data points in FIG. 2) or left unrestrained (∘ and Δ data points in FIG. 2), resulting in a significant facial withdrawal response up to 3 days post-stress.

[4] = target: T1, protease-activated receptor-2 (PAR2); experiment: Digital imaging microscopy of intracellular Ca2+ changes (Gq/Ca2+ signaling); assay type: cell-based; conditions: 16HBE14o- cells; [Ca2+]i by digital imaging microscopy
Description: as §1
(§2) It is known that two primary signaling outcomes of PAR2 activation are the initiation of Gq/Ca^2+ and β-arrestin/MAPK signaling. To determine whether the observed in vitro physiologic antagonism represented partial antagonism or intracellular signaling dependent antagonism, digital imaging microscopy was used to assay intracellular Ca^2+ changes ([Ca^2+ ]i; […]) as a measure of Gq/Ca^2+ signaling and an In Cell Western approach for measuring phosphorylation of extracellular regulated kinase ½ (ICW of pERK ½; see FIG. 1D) as an assay for β-arrestin/MAPK signaling. […] It is concluded that Compound I-1 is a β-arrestin/MAPK biased PAR2 antagonist.

[5] = target: T1, protease-activated receptor-2 (PAR2); experiment: In Cell Western of pERK 1/2 (β-arrestin/MAPK signaling); assay type: cell-based; conditions: 16HBE14o- cells; ICW of pERK 1/2
Description: as §1, §2

[6] = In vivo pharmacokinetics (plasma concentration by LC-MS/MS, non-compartmental analysis); conditions: mouse; for concentration at 24 h: read-out: Clast (24 h); for Cmax: read-out: Co/Cmax
Description: Compound I-1 was evaluated for its plasma stability and oral bioavailability. Mice were fasted overnight before dosing, with water provided ad libitum throughout the study. Three animals are dosed via gavage needle for oral administration at 10 mg/kg (10 mL/kg), via tail vein injection for intravenous administration at […], and via injection in the lower right quadrant of the abdomen for intraperitoneal injections at 10 mg/kg (10 mL/kg). Blood samples (25-30 μL per sample) were taken via saphenous or submandibular vein at 5, 15, 30 min, and 1, 2, 4, 6, 8, 24 h post dose and drug concentration determined by LC-MS/MS. Plasma concentrations were then graphed vs time and pharmacokinetic parameters (terminal half life, t1/2; initial plasma concentration, Co; area under the curve (AUC); volume of distribution at steady-state. Vss; total plasma clearance CLp; mean residence time, MRT; maximum plasma concentration Cmax; time to reach Cmax, tmax; and bioavailability, F) were determined using non-compartmental analysis.

In the case of `CC(C)C[C@@H]1C(=O)N2C(CN(CC3CCNCC3)C(=O)[C@@H]2CC(C)C)N1C(=O)c1ccco1` (stereo partly drawn) [Compound I-1, 4-(((2R,5S)-1-(furan-2-carbonyl)-2,5-diisobutyl-3,6-dioxohexahydroimidazolo [1,2-a]pyrazin-7(1H)-yl)methyl)piperidin-1-ium chloride], the “Total airway resistance in response to increasing methacholine” value [1] is reported as “has promise as a therapeutic for reducing allergen-induced asthma attacks”, the “Cell Index response to PAR2 activation (antagonism)” value [2] is reported as “reduced the response” and the “Facial withdrawal response after SNP” value [3] is reported as “eliminated”. The “Antagonism at the Gq/Ca2+ signaling pathway” value [4] was “not observed”, the “Antagonism of the β-arrestin/MAPK-signaling pathway” value [5] was “significant antagonism” and the F ([6]; IP, 10 mg/kG) was 89.8%. For the same molecule, the F ([6]; Oral, 10 mg/kG) was 84.7%, the AUC ([6]; plasma, IP, 10 mg/kG) was 2670 ng·h/mL and the Tmax ([6]; plasma, IP, 10 mg/kG) was 0.25 h. For the same molecule, the half-life ([6]; plasma, IP, 10 mg/kG) was 7.97 h, the concentration at 24 h ([6]; plasma, IP, 10 mg/kG) was 12.9 ng/mL and the Cmax ([6]; plasma, IP, 10 mg/kG) was 689 ng/mL. For the same molecule, the AUC ([6]; plasma, IV, 2 mg/kG) was 595 ng·h/mL, the half-life ([6]; plasma, IV, 2 mg/kG) was 7.9 h and the clearance ([6]; plasma, IV, 2 mg/kG, read-out: CLp) was 56.6 mL/min/kg. It also gave a concentration at 24 h ([6]; plasma, IV, 2 mg/kG) of 1.15 ng/mL, a Cmax ([6]; plasma, IV, 2 mg/kG) of 1330 ng/mL and a Vd ([6]; plasma, IV, 2 mg/kG, read-out: Vss) of 8.29 L/kg. The AUC ([6]; plasma, Oral, 10 mg/kG) was 2520 ng·h/mL, the Tmax ([6]; plasma, Oral, 10 mg/kG) was 0.5 h and the half-life ([6]; plasma, Oral, 10 mg/kG) was 7.45 h. The concentration at 24 h ([6]; plasma, Oral, 10 mg/kG) was 11.4 ng/mL and the Cmax ([6]; plasma, Oral, 10 mg/kG) was 632 ng/mL.
